Measured values as given in patent US12502383B2, “Pharmaceutical composition of cyclooxygenase-2 inhibitors” (THEMIS MEDICARE LIMITED, priority 2019, dated 2025).
Like-named read-outs stand apart in the source and are kept apart here.

Key:
[1] = cited from earlier work
[2] = in vivo; cited from earlier work
[3] = Solubilization of Etoricoxib in solubilizers; type: physicochemical
Procedure: The ratio of active to solubilizers between 1:35 to 1:135.71 gives good solubilization of coxib. Satisfactory compositions can be produced wherein ration of active to solubilizer is between 1:35 to 1:58.33. Etoricoxib 1.4 mg ie 0.14% w/v can be solubilized in Twin 80, 8% w/v and Transcutol 3% w/v. It can also be solubilized in Ethanol and Tween 8% w/v each and Transcutol 3% w/v. One can consider it as 3 solubilizers or 2 solubilizers and one solvent.

[4] = after oral and intravenous administration; cited from earlier work
[5] = cited from earlier work; remark: listed apart in the source
mouse = conditions: cited from earlier work
Dog = conditions: intravenous: Dog; cited from earlier work
rabbit = conditions: intravenous: rabbit; cited from earlier work

SMILES	Solubility in anhydrous ethanol [1]	Solubility in methylene chloride [1]	Solubility in water [1]	solubility in DMF [1]	solubility in DMSO [1]	solubility in ethanol [1]	drug eliminated unchanged [2] [%]	Etoricoxib solubilized ([3]; in Ethanol and Tween 8% w/v each and Transcutol 3% w/v)	Etoricoxib solubilized ([3]; in Twin 80, 8% w/v and Transcutol 3% w/v) [mg]	Solubility in 2-propanol [1]	Solubility in isopropyl acetate, ethanol and toluene [1]	Solubility in methanol, tetrahydrofuran, dimethyl sulfoxide, methyl ethyl ketone, dimethyl formamide, and chloroform [1]	Bioavailability [4] [%]	protein binding [5]	LD50 (mouse; intravenous: mouse) [µL/kg]	LD50 (mouse; subcutaneous: mouse) [µL/kg]	LD50 (Dog) [mL/kg]	LD50 (rabbit) [µL/kg]
Cc1ccc(-c2cc(C(F)(F)F)nn2-c2ccc(S(N)(=O)=O)cc2)cc1 [Celecoxib, 4-[5-(4-methylphenyl)-3-(trifluoromethyl)pyrazol-1-yl]benzenesulfonamide]	freely soluble to soluble	soluble	practically insoluble	approximately 25 mg/ml	approximately 16.6 mg/ml	approximately 25 mg/ml	< 3	–	–	–	–	–	–	–	–	–	–	–
Cc1ccc(-c2ncc(Cl)cc2-c2ccc(S(C)(=O)=O)cc2)cn1 [Etoricoxib]	–	–	practically insoluble	–	–	–	–	solubilized	1.4	sparingly soluble	soluble	freely soluble	100	about 92%	–	–	–	–
CCOCCOCCO [Transcutol, Diethylene Glycol Monoethyl Ether]	–	–	–	–	–	–	–	–	–	–	–	–	–	–	4300	5500	3	2500
